From patent publication US4217355A, “Amide therapeutic agents” (Pfizer Inc., priority 1978, dated 1980)

Each compound was assayed on murine thymus cells (assay: lymphocyte stimulation assay (LSA), in vitro lymphocyte proliferation of murine thymus cells cultured in the presence of Concanavalin A). Settings: in vitro; Con A present; 48 hours at 37° C.; score at drug level with maximum activity.
Type: cell-based, male C57B1/6 mice
Description: On the other hand, the activity of the compounds of the present invention, as immunoregulator agents, is based on a study of their ability to stimulate, in vitro, the lymphocyte proliferation of murine thymus cells cultured in the presence of Concanavalin A (Con A) by employing the general evaluation procedure of V. J. Merluzzi et al., as described in the Journal of Clinical and Experimental Immunology, Vol. 22, p. 486 (1975).
486 (1975). The cells were derived from male C57B1/6 mice of from 6-8 weeks age, purchased from the Jackson Laboratories of Bar Harbor, Maine and the Con A was obtained from Sigma Chemicals of St. Louis, Missouri. Each cell culture (consisting of 0.10 ml. thymus cells stock solution, 0.05 ml. of Con A stock solution and 0.05 ml. of drug solution) was performed in quadruplicate and cellular proliferation was measured, after 48 hours of incubation at 37° C., by pulsing each culture with ^3 H-thymidine (0.01 ml. of specific activity 1.9 C/mM, obtained from Schwarz-Mann, Inc. of Orangeburg, N.Y.) and then determining the incorporation of ^3 H-thymidine into cellular desoxyribonucleic acid (DNA) by an assessment of radioactivity using a liquid scintillation counter.

Compound | LSA Activity
Cc1csc(NC(=O)C(N)Cc2ccccc2)n1 (stereo not drawn) [X=CH3, R1=C6 H5 CH2, R2=hydrogen, N-(4-methyl-2-thiazolyl)-α-amino-β-phenylpropionamide] | +++ (those having an activity greater than levamisole (27,000±1,000 cpm) were scored as +++)
Cc1csc(NC(=O)C(C)N)n1 (stereo not drawn) [X=CH3, R1=CH3, R2=hydrogen, N-(4-methyl-2-thiazolyl)-α-aminopropionamide] | +++ (those having an activity greater than levamisole (27,000±1,000 cpm) were scored as +++)
Cc1csc(NC(=O)CNCc2ccccc2)n1 [X=CH3, R1=H, R2=benzyl, N-(4-methyl-2-thiazolyl)-α-benzylaminoacetamide] | +++ (those having an activity greater than levamisole (27,000±1,000 cpm) were scored as +++)
CNCC(=O)Nc1nc(C)cs1 [X=CH3, R1=H, R2=methyl, N-(4-methyl-2-thiazolyl)-α-methylaminoacetamide] | +++ (those having an activity greater than levamisole (27,000±1,000 cpm) were scored as +++)
Cc1csc(NC(=O)CNCCc2ccccc2)n1 [X=CH3, R1=H, R2=β-phenylethyl, N-(4-methyl-2-thiazolyl)-α-(β-phenylethylamino)acetamide] | +++ (those having an activity greater than levamisole (27,000±1,000 cpm) were scored as +++)
Cc1csc(NC(=O)C(N)C(C)C)n1 (stereo not drawn) [X=CH3, R1=iso-C3 H7, R2=hydrogen, N-(4-methyl-2-thiazolyl)-α-aminoisovaleramide] | +++ (those having an activity greater than levamisole (27,000±1,000 cpm) were scored as +++)
Cc1csc(NC(=O)C2CCCCN2)n1 (stereo not drawn) [X=CH3, R=2-piperidyl, N-(4-methyl-2-thiazolyl)piperidine-2-carboxamide] | +++ (those having an activity greater than levamisole (27,000±1,000 cpm) were scored as +++)
CC(N)C(=O)Nc1nccs1 (stereo not drawn) [X=H, R1=CH3, R2=hydrogen, N-(2-thiazolyl)-α-aminopropionamide] | +++ (those having an activity greater than levamisole (27,000±1,000 cpm) were scored as +++)
CNC(C)C(=O)Nc1nccs1 (stereo not drawn) [X=H, R1=CH3, R2=methyl, N-(2-thiazolyl)-α-methylaminopropionamide] | +++ (those having an activity greater than levamisole (27,000±1,000 cpm) were scored as +++)
O=C(CNCc1ccco1)Nc1nccs1 [X=H, R1=H, R2=2-furfuryl, N-(2-thiazolyl)-α-(2-furfurylamino)acetamide] | ++ (those equal to levamisole (22,000±900 cpm) were scored as ++)
O=C(CNCC1CCCO1)Nc1nccs1 (stereo not drawn) [X=H, R1=H, R2=2-tetrahydrofurfuryl, N-(2-thiazolyl)-α-(2-tetrahydrofurfurylamino)acetamide] | ++ (those equal to levamisole (22,000±900 cpm) were scored as ++)
O=C(CNCc1cccs1)Nc1nccs1 [X=H, R1=H, R2=2-thenyl, N-(2-thiazolyl)-α-(2-thenylamino)acetamide] | +++ (those having an activity greater than levamisole (27,000±1,000 cpm) were scored as +++)
O=C(CNCc1ccc2c(c1)OCO2)Nc1nccs1 [X=H, R1=H, R2=3,4-methylenedioxybenzyl, N-(2-thiazolyl)-α-(3,4-methylenedioxybenzylamino)acetamide] | ++ (those equal to levamisole (22,000±900 cpm) were scored as ++)
C=CCNCC(=O)Nc1nccs1 [X=H, R1=H, R2=allyl, N-(2-thiazolyl)-α-allylaminoacetamide] | ++ (those equal to levamisole (22,000±900 cpm) were scored as ++)
O=C(CNCC1CCCCC1)Nc1nccs1 [X=H, R1=H, R2=cyclohexylmethyl, N-(2-thiazolyl)-α-cyclohexylmethylaminoacetamide] | ++ (those equal to levamisole (22,000±900 cpm) were scored as ++)
O=C(CNC1CCCCCCC1)Nc1nccs1 [X=H, R1=H, R2=cyclooctyl, N-(2-thiazolyl)-α-cyclooctylaminoacetamide] | ++ (those equal to levamisole (22,000±900 cpm) were scored as ++)
CCNCC(=O)Nc1nccs1 [X=H, R1=H, R2=ethyl, N-(2-thiazolyl)-α-ethylaminoacetamide] | +++ (those having an activity greater than levamisole (27,000±1,000 cpm) were scored as +++)
NCC(=O)Nc1nccs1 [X=H, R1=H, R2=hydrogen, N-(2-thiazolyl)-α-aminoacetamide] | ++ (those equal to levamisole (22,000±900 cpm) were scored as ++)
CNCC(=O)Nc1nccs1 [X=H, R1=H, R2=methyl, N-(2-thiazolyl)-α-methylaminoacetamide] | +++ (those having an activity greater than levamisole (27,000±1,000 cpm) were scored as +++)
CCCCNCC(=O)Nc1nccs1 [X=H, R1=H, R2=n-butyl, N-(2-thiazolyl)-α-(n-butylamino)acetamide] | ++ (those equal to levamisole (22,000±900 cpm) were scored as ++)
CCCNCC(=O)Nc1nccs1 [X=H, R1=H, R2=n-propyl, N-(2-thiazolyl)-α-(n-propylamino)acetamide] | ++ (those equal to levamisole (22,000±900 cpm) were scored as ++)
O=C(CNCc1ccc(Cl)cc1)Nc1nccs1 [X=H, R1=H, R2=p-chlorobenzyl, N-(2-thiazolyl)-α-(p-chlorobenzylamino)acetamide] | ++ (those equal to levamisole (22,000±900 cpm) were scored as ++)
O=C(CNCc1ccc(F)cc1)Nc1nccs1 [X=H, R1=H, R2=p-fluorobenzyl, N-(2-thiazolyl)-α-(p-fluorobenzylamino)acetamide] | +++ (those having an activity greater than levamisole (27,000±1,000 cpm) were scored as +++)
COc1ccc(CNCC(=O)Nc2nccs2)cc1 [X=H, R1=H, R2=p-methoxybenzyl, N-(2-thiazolyl)-α-(p-methoxybenzylamino)acetamide] | +++ (those having an activity greater than levamisole (27,000±1,000 cpm) were scored as +++)
Cc1ccc(CNCC(=O)Nc2nccs2)cc1 [X=H, R1=H, R2=p-methylbenzyl, N-(2-thiazolyl)-α-(p-methylbenzylamino)acetamide] | + (those superior to Con A activity but less than levamisole (10,000±700 cpm) were scored as +)
O=C(CNCc1ccc(C(F)(F)F)cc1)Nc1nccs1 [X=H, R1=H, R2=p-trifluoromethylbenzyl] | ++ (those equal to levamisole (22,000±900 cpm) were scored as ++)
O=C(CNCCc1ccccc1)Nc1nccs1 [X=H, R1=H, R2=β-phenylethyl, N-(2-thiazolyl)-α-(β-phenylethylamino)acetamide] | ++ (those equal to levamisole (22,000±900 cpm) were scored as ++)
CC(C)C(N)C(=O)Nc1nccs1 (stereo not drawn) [X=H, R1=iso-C3 H7, R2=hydrogen, N-(2-thiazolyl)-α-aminoisovaleramide] | ++ (those equal to levamisole (22,000±900 cpm) were scored as ++)

Same assay, conditions: standard compound; Con A present; 48 hours at 37° C.

Compound | 3H-thymidine incorporated (average counts per minute)
c1ccc([C@H]2CN3CCSC3=N2)cc1 [levamisole, reference compound] | 22,000±900 cpm

The compounds below were run on carrageenin-induced edema in the hind paw (assay: carrageenin-induced rat food edema test (inhibition of edema formation in the hind paw)). Settings: rat, oral, 1.0 mg./kg.
Type: in vivo, male albino rats
Protocol: A. Winter et al., Proc. Soc. Exp. Biol. Med., Vol. 111, p.
A. Winter et al., as earlier reported in the Proceedings of the Society of Experimental Biology and Medicine, Vol. 111, p. 544 (1962). In this test, anti-inflammatory activity is determined as the percent inhibition of edema formation in the hind paw of male albino rats (weighing 150-190 g.) in response to a sub-plantar injection of carrageenin. The carrageenin is injected as a 1% aqueous suspension (0.05 ml.) one hour after oral administration of the drug, which is normally given in the form of an aqueous solution. Edema formation is then assessed three hours after the carrageenin injection by measuring the volume of the injected paw initially as well as at the three-hour mark. The increase in volume three hours after carrageenin injection constitutes the individual response.
The following N-(2-thiazolyl)amides were tested for anti-inflammatory activity in rats, using the standard carrageen-ininduced rat food edema test, according to the procedure essentially described by C. A. Winter et al., as first reported in the Proceedings of the Society for Experimental Biology and Medicine, Vol. 111, p. 544 (1962). […]

Compound | % Inhibition of edema formation (swelling) [%]
Cl.O=C(CNCc1ccccc1)Nc1nccs1 [N-(2-thiazolyl)-α-benzylaminoacetamide hydrochloride] | 35

Same assay, conditions: rat, oral, 3.3 mg./kg.

Compound | % Inhibition of edema formation [%]
Cl.O=C(CNCc1ccccc1)Nc1nccs1 [N-(2-thiazolyl)-α-benzylaminoacetamide hydrochloride] | 47

Same assay, conditions: rat, oral, 10 mg./kg.

Compound | % Inhibition of edema formation [%]
Cl.O=C(CNCc1ccccc1)Nc1nccs1 [N-(2-thiazolyl)-α-benzylaminoacetamide hydrochloride] | 54

Same assay, conditions: rat, oral, 33 mg./kg., three hours after carrageenin injection

Compound | % Inhibition of edema formation [%]
CNCC(=O)Nc1nc(C)cs1 [X=CH3, R1=H, R2=methyl, N-(4-methyl-2-thiazolyl)-α-methylaminoacetamide] | 53
CNCC(=O)Nc1nccs1 [X=H, R1=H, R2=methyl, N-(2-thiazolyl)-α-methylaminoacetamide] | 54
O=C(CNCc1ccc(F)cc1)Nc1nccs1 [X=H, R1=H, R2=p-fluorobenzyl, N-(2-thiazolyl)-α-(p-fluorobenzylamino)acetamide] | 48
O=C(CNCCc1ccccc1)Nc1nccs1 [X=H, R1=H, R2=β-phenylethyl, N-(2-thiazolyl)-α-(β-phenylethylamino)acetamide] | 53
